# From US10308654B2, “Preparation and use of kinase inhibitor” (CHANGZHOU LONGTHERA PHARMACEUTICALS INC, priority 2015, dated 2019)
# Legend:
# CDK4/CyclinD1 = CDK4/CyclinD1 (Homo sapiens (Human), UniProt P11802); assay: CDK kinase activity assay (LANCE TR-FRET, ULight-4E-BP1 substrate); assay type: biochemical; settings: CDK4/CyclinD1, 60 minutes incubation
# Procedure: (§1) The CDK kinase used in this experiment: CDK4/CyclinD1 (invitrogen, Item No: PV4400); CDK6/CyclinD1 (invitrogen, Item No: PV4401); CDK1/CyclinB (invitrogen, Item No: PV3292).
# (§2) Reagents used: Substrate is ULight-4E-BP1 (PerkinElmer, Item No: TRF0128); antibody is Eu-labeledanti-phospho-eIF4E-bindingprotein1 (Thr37/46) (Perkin-Elmer, Item No: TRF0216).
# (§3) The test compound was dissolved in dimethyl sulfoxide and the solution was diluted to each concentration gradient with a buffer (50 mM HEPES, 10 mM MgCl2, 1 mM EGTA, 2 mM DTT and 0.01% Tween20) according to the test needs, the concentration of dimethyl sulfoxide was 4%. The buffer was then used to dilute ATP and the substrate ULight-4E-BP1 to prepare the mixture of 800 μM ATP and 200 nM substrate for further use. 2.5 μL of mixture of substrate and ATP or 2.5 μL of substrate was added to the wells, and then 2.5 μL of compound or 4% buffer of dimethyl sulfoxide was added, finally 5 μL of enzyme (final concentration was 0.66 μg/mL) was added, incubated avoiding light at room temperature for 60 minutes. 5 μL of EDTA stop buffer (final concentration was […]) diluted with 1×detectionbuffer (LANCEDetectionBuffer, 10×, PerkinElmer, CR97-100) was added to each well, and then 5 μL of antibody (final concentration was 2 nM) diluted with 1×detectionbuffer was added, incubated avoiding light at room temperature for 60 minutes. Perkin Elmer EnVision® TRFRETmode (Excitation wavelength: 320 nm, emission wavelength: 615 nm and 665 nm) was used to measure plates.
# (§4) The inhibition rate of the sample was determined by the following formula: […]
# (§5) IC50 values were calculated using GraphPadPrism software.
# Colo205 cells = assay: Proliferation inhibitory activity against human colon cancer cell line Colo205 (CCK8); assay type: cell-based; settings: COLO 205, 96 hours
# Procedure: In vitro cell assay described below could determine the proliferation inhibitory activity against human colon cancer cell line of the test compounds, and their activities could be represented by IC50 value.
# Colo205 cells (Chinese Academy of Sciences typical culture storage committee cell bank) were inoculated in 96-well culture plate with a suitable cell concentration of 2000 cells per hole, 140 μL of medium per well, then incubated in a carbon dioxide incubator at 37° C. overnight. 10 μL of different concentrations of the test compounds were added and reacted for 96 hours, and then the solvent control group (negative control) was set. The proliferation inhibitory activities against tumor cells of the test compounds were tested by CCK8 (CellCounting Kit-8, Item No: CK04, purchased from Tongren Chemical) method after 96 hours. The full-wavelength microplate reader SpectraMax190 was used for reading, the measurement wavelength was 450 nm.
# as §4
# IC50 value was calculated by four parameter regression using microplate reader with random software.
# CDK1/CyclinB = CDK1/CyclinB (Homo sapiens (Human), UniProt P06493); assay: CDK kinase activity assay (LANCE TR-FRET, ULight-4E-BP1 substrate); assay type: biochemical; settings: 60 minutes incubation
# Chain of CDK1/CyclinB (P06493 whole entry): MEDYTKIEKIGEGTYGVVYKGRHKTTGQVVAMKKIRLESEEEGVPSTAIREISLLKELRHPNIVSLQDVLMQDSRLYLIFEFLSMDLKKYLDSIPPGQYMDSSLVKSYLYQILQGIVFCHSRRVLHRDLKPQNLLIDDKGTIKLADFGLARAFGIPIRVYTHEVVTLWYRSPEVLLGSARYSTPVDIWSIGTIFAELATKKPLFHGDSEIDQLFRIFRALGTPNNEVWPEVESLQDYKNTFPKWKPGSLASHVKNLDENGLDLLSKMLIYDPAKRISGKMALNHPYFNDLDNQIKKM
# Chain of CDK1/CyclinB (P14635 whole entry partner): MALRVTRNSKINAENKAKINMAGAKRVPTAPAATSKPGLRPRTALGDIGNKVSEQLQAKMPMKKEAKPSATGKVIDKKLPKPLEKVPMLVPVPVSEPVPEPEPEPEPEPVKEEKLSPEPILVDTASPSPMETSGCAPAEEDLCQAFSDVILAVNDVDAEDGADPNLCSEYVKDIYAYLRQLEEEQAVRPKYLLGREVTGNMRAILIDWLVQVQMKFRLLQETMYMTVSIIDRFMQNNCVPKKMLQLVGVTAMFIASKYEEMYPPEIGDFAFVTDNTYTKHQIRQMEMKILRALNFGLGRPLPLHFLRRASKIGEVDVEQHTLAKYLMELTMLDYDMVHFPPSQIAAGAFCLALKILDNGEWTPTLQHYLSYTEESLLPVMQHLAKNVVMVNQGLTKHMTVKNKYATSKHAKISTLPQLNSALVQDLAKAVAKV
# Procedure: as §1, §2, §3, §4, §5
# Chain of CDK4/CyclinD1 (P11802 whole entry): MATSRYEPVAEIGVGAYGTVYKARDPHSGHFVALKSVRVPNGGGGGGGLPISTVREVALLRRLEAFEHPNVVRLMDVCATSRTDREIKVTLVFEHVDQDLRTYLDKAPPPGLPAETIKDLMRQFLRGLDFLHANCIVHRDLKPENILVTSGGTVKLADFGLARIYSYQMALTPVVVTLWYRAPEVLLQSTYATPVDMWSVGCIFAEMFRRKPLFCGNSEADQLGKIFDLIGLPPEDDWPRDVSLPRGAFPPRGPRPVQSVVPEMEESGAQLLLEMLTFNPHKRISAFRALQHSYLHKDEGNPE
# Chain of CDK4/CyclinD1 (P24385 whole entry partner): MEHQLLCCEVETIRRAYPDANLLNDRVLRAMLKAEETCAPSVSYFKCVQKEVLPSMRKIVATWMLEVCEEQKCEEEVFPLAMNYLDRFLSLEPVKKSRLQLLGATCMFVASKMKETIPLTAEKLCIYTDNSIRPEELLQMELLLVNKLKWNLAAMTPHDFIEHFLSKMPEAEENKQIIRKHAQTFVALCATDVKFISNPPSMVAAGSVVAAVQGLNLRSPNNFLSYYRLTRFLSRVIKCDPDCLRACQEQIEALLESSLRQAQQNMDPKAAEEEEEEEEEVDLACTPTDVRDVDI
IC50 (CDK4/CyclinD1) [nM],IC50 (Colo205 cells) [nM],IC50 (CDK1/CyclinB) [nM],Structure (SMILES)
< 100,> 2000,,CN(C)C(=O)c1cc2cnc(Nc3ccc(N4CCN(C(=O)OC(C)(C)C)CC4)cn3)nc2n1N1CCCCC1 [Example 12]
< 100,500 to 2000,,CN(C)C(=O)c1cc2cnc(Nc3ccc(N4CCNCC4)cn3)nc2n1N1CCCCC1 [Example 13]
< 100,500 to 2000,> 500,"CN1CCN(c2ccc(Nc3ncc4cc(C(=O)N(C)C)n(N5CCCCC5)c4n3)nc2)CC1 [Example 14, N,N-dimethyl-2-((5-(4-methylpiperazin-1-yl)pyridin-2-yl)amino)-7-(piperidin-1-yl)-7H-pyrrolo[2,3-d]pyrimidine-6-carboxamide]"
< 100,> 2000,> 500,"CN(C)C(=O)c1cc2cnc(Nc3ccc(N4CCNCC4)cn3)nc2n1N1CCCCCC1 [Example 15, 7-(hexamethyleneimin-1-yl)N,N-dimethyl-2-((5-(piperazin-1-yl)pyridin-2-yl)amino)-7H-pyrrolo[2,3-d]pyrimidine-6-carboxamide]"
< 100,500 to 2000,> 500,"CN1CCN(c2ccc(Nc3ncc4cc(C(=O)N5CCC5)n(N5CCCCC5)c4n3)nc2)CC1 [Example 16, Azetidin-1-yl-(2-((5-(4-methylpiperazin-1-yl)pyridin-2-yl)amino)-7-(piperidin-1-yl)-7H-pyrrolo[2,3-d]pyrimidin-6-yl)methanone]"
< 100,> 2000,> 500,"O=C(c1cc2cnc(Nc3ccc(N4CCNCC4)cn3)nc2n1N1CCCCC1)N1CCC1 [Example 17, Azetidin-1-yl-(2-((5-(piperazin-1-yl)pyridin-2-yl)amino)-7-(piperidin-1-yl)-7H-pyrrolo[2,3-d]pyrimidin-6-yl)methanone]"
< 100,500 to 2000,> 500,"CNC(=O)c1cc2cnc(Nc3ccc(N4CCNCC4)cn3)nc2n1N1CCCCC1 [Example 18, N-methyl-2-((5-(piperazin-1-yl)pyridin-2-yl)amino)-7-(piperidin-1-yl)-7H-pyrrolo[2,3-d] pyrimidine-6-carboxamide]"
< 100,> 2000,,"CN(C)C(=O)c1cc2cnc(Nc3ccc(N4CCN(C(=O)OC(C)(C)C)CC4)cn3)nc2n1N1CCCC1 [Example 19, Tert-butyl 4-(6-((6-(dimethylcarbamoyl)-7-(pyrrolidin-1-yl)-7H-pyrrolo[2,3-d]pyrimidin-2-yl)amino)pyridin-3-yl)piperazine-1-carboxylate]"
< 100,500 to 2000,> 500,"CN(C)C(=O)c1cc2cnc(Nc3ccc(N4CCNC(C)(C)C4)cn3)nc2n1N1CCCCC1 [Example 20, 2-((5-(3,3-dimethylpiperazin-1-yl)pyridin-2-yl)amino)-N,N-dimethyl-7-(piperidin-1-yl)-7H-pyrrolo[2,3-d]pyrimidine-6-carboxamide]"
< 100,> 2000,> 500,"CN1CCN(c2ccc(Nc3ncc4cc(C(=O)N5CCCC5)n(N5CCCCC5)c4n3)nc2)CC1 [Example 21, (2-((5-(4-methylpiperazin-1-yl)pyridin-2-yl)amino)-7-(piperidin-1-yl)-7H-pyrrolo[2,3-d]pyrimidin-6-yl)-pyrrolidin-1-ylmethanone]"
100 to 500,,,"CN1CCN(c2ccc(Nc3ncc4cc(C(=O)N(C)C)n(N5CCOCC5)c4n3)nc2)CC1 [Example 22, N,N-dimethyl-2-((5-(4-methylpiperazin-1-yl)pyridin-2-yl)amino)-7-morpholino-7H-pyrrolo[2,3-d]pyrimidine-6-carboxamide]"
< 100,> 2000,> 500,"O=C(c1cc2cnc(Nc3ccc(N4CCNCC4)cn3)nc2n1N1CCCCC1)N1CCCC1 [Example 23, (2-((5-(piperazin-1-yl)pyridin-2-yl)amino)-7-(piperidin-1-yl)-7H-pyrrolo[2,3-d]pyrimidin-6-yl)-pyrrolidin-1-ylmethanone]"
< 100,> 2000,> 500,"CN(C)C(=O)c1cc2cnc(Nc3ccc(N4CCNCC4)cn3)nc2n1N1CCCC1 [Example 24, N,N-dimethyl-2-((5-(piperazin-1-yl)pyridin-2-yl)amino)-7-(pyrrolidin-1-yl)-7H-pyrrolo[2,3-d]pyrimidine-6-carboxamide]"
< 100,> 2000,> 500,"CN(C)C(=O)c1cc2cnc(Nc3ccc(N4CCOCC4)cn3)nc2n1N1CCCCC1 [Example 25, N,N-dimethyl-2-((5-morpholinopyridin-2-yl)amino)-7-(piperidin-1-yl)-7H-pyrrolo[2,3-d]pyrimidine-6-carboxamide]"
< 100,500 to 2000,> 500,"CCN1CCN(c2ccc(Nc3ncc4cc(C(=O)N(C)C)n(N5CCCCC5)c4n3)nc2)CC1 [Example 26, N,N-dimethyl-2-((5-(4-ethylpiperazin-1-yl)pyridin-2-yl)amino)-7-(piperidin-1-yl)-7H-pyrrolo[2,3-d]pyrimidine-6-carboxamide]"
< 100,500 to 2000,> 500,"C[C@@H]1CN(c2ccc(Nc3ncc4cc(C(=O)N(C)C)n(N5CCCCC5)c4n3)nc2)C[C@H](C)N1 [Example 27, 2-((5-((3S,5R)-3,5-dimethylpiperazin-1-yl)pyridin-2-yl)amino)-N,N-dimethyl-7-(piperidin-1-yl)-7H-pyrrolo[2,3-d]pyrimidine-6-carboxamide]"
100 to 500,,,"CN(C)C(=O)c1cc2cnc(Nc3ccc(N4CCNCC4)cn3)nc2n1N1CCOCC1 [Example 28, N,N-dimethyl-2-((5-(piperazin-1-yl)pyridin-2-yl)amino)-7-morpholino-7H-pyrrolo[2,3-d]pyrimidine-6-carboxamide]"
< 100,> 2000,> 500,"CCN(CC)C(=O)c1cc2cnc(Nc3ccc(N4CCNCC4)cn3)nc2n1N1CCCCC1 [Example 29, N,N-diethyl-2-((5-(piperazin-1-yl)pyridin-2-yl)amino)-7-(piperidin-1-yl)-7H-pyrrolo[2,3-d]pyrimidine-6-carboxamide]"
